Test results reported in US10913736B2 (UNIVERSITY OF WASHINGTON, priority 2014, dated 2021).
Converted amounts (≈) assume the structure as drawn. Like-named read-outs stand apart in the source and are kept apart here.

Experiments:
[1] = tested on: T. brucei; assay: Growth inhibition assay of T. brucei cell cultures (Alamar Blue, 48 h); format: cell-based
[2] = tested on: L. amaz; assay: L. amaz growth inhibition EC50; format: cell-based; conditions: read-out: F) L. amaz EC50
[3] = molecular target: MetRS (T. brucei) (Trypanosoma brucei brucei, UniProt Q38C91); assay: MetRS (T. brucei) ATP depletion assay using Kinase-Glo; format: biochemical
[4] = molecular target: MetRS (S. aureus) (Staphylococcus aureus, UniProt Q5HII6); assay: biochemical; conditions: ATP depletion, Kinase-Glo; read-out: H) MetRS (S. aureus) ATP depletion assay using Kinase-Glo with modified cpd dilution method, IC50
[5] = tested on: T. cruzi; assay: T. cruzi growth inhibition EC50; format: cell-based; conditions: Trypanosoma cruzi; read-out: C) T. cruzi EC50
[6] = tested on: S. aureus (ATCC 29213); assay: S. aureus (ATCC 29213) MIC/EC50; format: cell-based; conditions: Staphylococcus aureus, ATCC29213; S. aureus ATCC 29213; read-out: I) S. aureus (ATCC 29213) MIC/EC50, MIC
[7] = tested on: S. aureus MRSA (ATCC 43300); assay: S. aureus MRSA (ATCC 43300) MIC/EC50; format: cell-based; conditions: Staphylococcus aureus; S. aureus MRSA ATCC 43300; read-out: J) S. aureus MRSA (ATCC 43300) MIC/EC50, MIC
[8] = Trypanosoma brucei; read-out: B) T. brucei EC50

Chain of MetRS (S. aureus) (Q5HII6 whole entry): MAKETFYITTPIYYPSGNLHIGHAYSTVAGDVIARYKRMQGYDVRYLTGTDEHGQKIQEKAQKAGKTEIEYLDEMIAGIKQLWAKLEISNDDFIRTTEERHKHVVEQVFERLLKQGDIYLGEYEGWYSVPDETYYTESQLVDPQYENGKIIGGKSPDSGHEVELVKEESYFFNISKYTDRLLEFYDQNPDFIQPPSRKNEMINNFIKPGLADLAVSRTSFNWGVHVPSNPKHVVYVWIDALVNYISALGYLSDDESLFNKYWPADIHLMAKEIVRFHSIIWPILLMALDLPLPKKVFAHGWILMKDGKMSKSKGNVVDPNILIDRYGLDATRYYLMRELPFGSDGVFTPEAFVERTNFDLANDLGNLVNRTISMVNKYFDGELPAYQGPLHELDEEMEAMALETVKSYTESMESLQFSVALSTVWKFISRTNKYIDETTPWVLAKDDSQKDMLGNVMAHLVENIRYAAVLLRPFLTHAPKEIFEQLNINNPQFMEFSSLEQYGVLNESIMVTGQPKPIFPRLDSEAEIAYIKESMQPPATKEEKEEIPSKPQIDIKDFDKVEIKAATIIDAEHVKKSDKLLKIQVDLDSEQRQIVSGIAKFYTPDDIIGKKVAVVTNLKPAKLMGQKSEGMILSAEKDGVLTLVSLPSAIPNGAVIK
Chain of MetRS (T. brucei) (Q38C91 entry or part of it): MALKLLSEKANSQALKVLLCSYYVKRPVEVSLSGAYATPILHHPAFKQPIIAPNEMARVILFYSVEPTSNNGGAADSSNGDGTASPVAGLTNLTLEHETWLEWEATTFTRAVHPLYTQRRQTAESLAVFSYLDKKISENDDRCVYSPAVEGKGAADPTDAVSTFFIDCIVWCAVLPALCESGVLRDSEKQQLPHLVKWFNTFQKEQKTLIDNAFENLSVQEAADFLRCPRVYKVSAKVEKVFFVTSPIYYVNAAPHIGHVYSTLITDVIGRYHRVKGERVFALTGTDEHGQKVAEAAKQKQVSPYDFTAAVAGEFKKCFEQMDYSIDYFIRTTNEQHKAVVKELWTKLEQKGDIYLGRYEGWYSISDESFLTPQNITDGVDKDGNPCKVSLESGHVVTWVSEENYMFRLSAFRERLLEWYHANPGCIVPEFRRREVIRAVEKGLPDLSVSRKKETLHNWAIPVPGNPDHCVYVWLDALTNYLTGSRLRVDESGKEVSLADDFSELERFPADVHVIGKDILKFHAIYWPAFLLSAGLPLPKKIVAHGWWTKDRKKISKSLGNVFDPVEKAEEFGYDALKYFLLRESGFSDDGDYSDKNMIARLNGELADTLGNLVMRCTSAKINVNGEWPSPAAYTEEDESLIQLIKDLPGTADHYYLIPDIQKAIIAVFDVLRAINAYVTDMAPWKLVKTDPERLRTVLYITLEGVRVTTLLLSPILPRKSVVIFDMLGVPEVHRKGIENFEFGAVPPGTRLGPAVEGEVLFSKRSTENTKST

Row | SMILES | EC50 [1, 8] | EC50 [2] | IC50 [3] | EC50 ([1]; read-out: B) T. brucei EC50) | IC50 [4] | EC50 [5] | MIC [6] | MIC [7]
1 | Clc1cc(Cl)cc(CNCC2CCCN2c2nc3nc(Cl)ccc3[nH]2)c1 (stereo not drawn) [Compound 1916, 1-(1-(5-chloro-1H-imidazo[4,5-b]pyridin-2-yl)pyrrolidin-2-yl)-N-(3,5-dichlorobenzyl)methanamine] | 480 nM | 9550 nM | 58 nM | – | – | – | – | –
2 | CN(CCN[C@@H]1CCNc2c(Cl)cc(Cl)cc21)c1nc2nc(F)ccc2[nH]1 [Compound 1919, (R)—N1-(6,8-dichloro-1,2,3,4-tetrahydroquinolin-4-yl)-N2-(5-fluoro-1H-imidazo[4,5-b]pyridin-2-yl)-N2-methylethane-1,2-diamine] | 6.31 nM | 1640 nM | 15 nM | 9.45 nM | 328 nM | 88.8 nM | – | –
3 | O=C(NCc1nc2ccc(F)nc2[nH]1)OCCc1ccc(Cl)cc1Cl [Compound 1707, 2-(2,4-dichlorophenyl)ethyl N-({5-fluoro-3H-imidazo[4,5-b]pyridin-2-yl}methyl)carbamate] | 1610 nM | > 1000 nM | 26 nM | – | 37 nM | > 10000 nM | – | –
4 | O=C(Cc1cc(Cl)cc(Cl)c1)N1CCCC(c2nc3cc(Cl)ccc3[nH]2)C1 (stereo not drawn) [Compound 1734, 1-(3-(5-chloro-1H-benzo[d]imidazol-2-yl)piperidin-1-yl)-2-(3,5-dichlorophenyl) ethanone] | 1400 nM | – | 60 nM | – | 2440 nM | 4910 nM | > 10 µg/mL | > 10 µg/mL
5 | COc1c(Cl)cc(Cl)cc1CN[C@H]1CCCN(c2nc3nc(Cl)ccc3[nH]2)C1 [Compound 1911, (S)-1-(5-chloro-1H-imidazo[4,5-b]pyridin-2-yl)-N-(3,5-dichloro-2-methoxybenzyl)piperidin-3-amine] | 357 nM | 5150 nM | 21 nM | – | – | – | – | –
6 | Clc1cc(Cl)cc(CN[C@H]2CCCN(c3nc4nc(Cl)ccc4[nH]3)C2)c1 [Compound 1856, (S)-1-(5-chloro-1H-imidazo[4,5-b]pyridin-2-yl)-N-(3,5-dichlorobenzyl) piperidin-3-amine] | 38.7 nM | 4350 nM | 19 nM | – | 365 nM | 1470 nM | – | –
7 | Clc1cc(Cl)cc(CNCCc2nc3ccc(Cl)cc3[nH]2)c1 [Compound 1767, [2-(6-chloro-1H-1,3-benzodiazol-2-yl)ethyl][(3,5-dichlorophenyl)methyl]amine] | 627 nM | – | 51 nM | – | > 1000 nM | 2930 nM | > 10 µg/mL | 10 µg/mL (≈ 28.2 µM)
8 | CN(CCN[C@@H]1CCNc2c(Cl)cc(Cl)cc21)c1nc2nc(Cl)ccc2[nH]1 [Compound 1917, 5-chloro-N-(2-{[(4R)-6,8-dichloro-1,2,3,4-tetrahydroquinolin-4-yl]amino}ethyl)-N-methyl-3H-imidazo[4,5-b]pyridin-2-amine] | – | 663 nM | 21 nM | – | 137 nM | 15.7 nM | – | –
9 | O=C(Cc1cc(Cl)cc(Cl)c1)N1CCCC(c2nc3nc(F)ccc3[nH]2)C1 (stereo not drawn) [Compound 1761, 2-(3,5-dichlorophenyl)-1-(3-(5-fluoro-1H-imidazo[4,5-b]pyridin-2-yl)piperidin-1-yl)ethanone] | 996 nM | – | 54 nM | – | 1910 nM | > 5000 nM | > 10 µg/mL | > 10 µg/mL
10 | O=C(Cc1cc(Cl)cc(Cl)c1)N1CCC[C@H](c2nc3cc(Cl)ccc3[nH]2)C1 [Compound 1758, (S)-1-(3-(5-chloro-1H-benzo[d]imidazol-2-yl)piperidin-1-yl)-2-(3,5-dichlorophenyl)ethanone] | 4650 nM | – | 31 nM | – | 1040 nM | – | > 10 µg/mL | > 10 µg/mL
11 | COc1ccc(Oc2cc(NCc3nc4ccc(F)nc4[nH]3)nc(Cl)n2)c(Cl)c1 [Compound 1796, 6-(2-chloro-4-methoxyphenoxy)-2-chloro-N-((5-fluoro-3H-imidazo[4,5-b]pyridin-2-yl)methyl)pyrimidin-4-amine] | – | > 1000 nM | 17 nM | – | 55 nM | 521 nM | – | –
12 | FC(F)(CNCc1cc(Cl)cc(Cl)c1)CNc1nc2cccnc2[nH]1 [Compound 1708, [(3,5-dichlorophenyl)methyl][2,2-difluoro-3-({3H-imidazo[4,5-b]pyridin-2-yl}amino)propyl]amme] | 1560 nM | > 1000 nM | 11 nM | 893 nM | 88 nM | > 5000 nM | – | –
13 | O=C(Cc1cc(Cl)cc(Cl)c1)N1CCCC(c2nc3nc(Cl)ccc3[nH]2)C1 (stereo not drawn) [Compound 1762, 1-(3-(5-chloro-1H-imidazo[4,5-b]pyridin-2-yl)piperidin-1-yl)-2-(3,5-dichlorophenyl)ethanone] | 1060 nM | – | 28 nM | – | 2880 nM | – | > 10 µg/mL | > 10 µg/mL
14 | O=c1[nH]c(Cc2ccc(Cl)cc2Cl)cn1Cc1nc2ccccc2[nH]1 [Compound 1907, 3-((1H-benzo[d]imidazol-2-yl)methyl)-5-(2,4-dichlorobenzyl)-1H-imidazol-2(3H)-one] | 346 nM | > 1000 nM | 19 nM | – | 54 nM | 7670 nM | – | –
15 | CC(=O)N(CCN(C)c1nc2ccc(Cl)nc2[nH]1)Cc1cc(Cl)cc(Cl)c1 [Compound 1926, N-(3,5-dichlorobenzyl)-N-(2-(5-chloro-N-methyl-1H-imidazo[4,5-b]pyridin-2-ylamino)ethyl)acetamide] | 75.5 nM | – | 20 nM | – | 172 nM | 1330 nM | – | –
16 | Clc1cc(Cl)cc(NCC2CCCN(c3nc4nc(Cl)ccc4[nH]3)C2)c1 (stereo not drawn) [Compound 1862, 3,5-dichloro-N-((1-(5-chloro-1H-imidazo[4,5-b]pyridin-2-yl)piperidin-3-yl)methyl)aniline] | 343 nM | – | 31 nM | – | 754 nM | 4920 nM | – | –
17 | Clc1cc(Cl)cc(CNC2CCCN(c3nc4nc(Cl)ccc4[nH]3)C2)c1 (stereo not drawn) [Compound 1811, 1-(5-chloro-1H-imidazo[4,5-b]pyridin-2-yl)-N-(3,5-dichlorobenzyl) piperidin-3-amine] | 81.8 nM | – | 8 nM | – | 709 nM | 2510 nM | – | –
18 | Clc1ccc2[nH]c([C@H]3CCCN(Cc4ccc(Cl)c(Cl)c4)C3)nc2n1 [Compound 1870, (S)-5-chloro-2-(1-(3,4-dichlorobenzyl)piperidin-3-yl)-1H-imidazo[4,5-b]pyridine] | 458 nM | – | 54 nM | – | 837 nM | 2610 nM | – | –
19 | Clc1cc(Br)cc(CN[C@H]2CCCN(c3nc4nc(Cl)ccc4[nH]3)C2)c1 [Compound 1912, (S)—N-(3-bromo-5-chlorobenzyl)-1-(5-chloro-1H-imidazo[4,5-b]pyridin-2-yl)piperidin-3-amine] | 70.6 nM | 7730 nM | 8 nM | – | – | 2250 nM | – | –
20 | N[C@@H](CC(=O)NCc1nc2ccccc2[nH]1)Cc1ccc(Cl)cc1Cl [Compound 1720, (R)—N-((1H-benzo[d]imidazol-2-yl)methyl)-3-amino-4-(2,4-dichlorophenyl)butanamide] | 848 nM | – | 70 nM | – | 181 nM | 3700 nM | > 10 µg/mL | > 10 µg/mL
21 | Clc1cc(Cl)cc(CNCCNc2nc3ccc(Cl)nc3[nH]2)c1 [Compound 1849, [2-({5-chloro-3H-imidazo[4,5-b]pyridin-2-yl}amino)ethyl][(3,5-dichlorophenyl)methyl]amine] | 60.7 nM | – | 33 nM | – | 3110 nM | 1810 nM | – | –
22 | O=C(NCc1nc2ccccc2[nH]1)OCCc1ccc(Cl)cc1Cl [Compound 1701, 2-(2,4-dichlorophenyl)ethyl N-(1H-1,3-benzodiazol-2-ylmethyl)carbamate] | 1290 nM | – | 5 nM | – | 67 nM | 8750 nM | > 10 µg/mL | > 10 µg/mL
23 | COc1ccc(Oc2cc(NCc3nc4ccc(F)nc4[nH]3)nc(N3CCN(c4cnccn4)CC3)n2)c(Cl)c1 [Compound 1797, 6-(2-chloro-4-methoxyphenoxy)-N-((5-fluoro-3H-imidazo[4,5-b]pyridin-2-yl)methyl)-2-(4-(pyrazin-2-yl)piperazin-1-yl)pyrimidin-4-amine] | – | > 1000 nM | 23 nM | – | 2 nM | 432 nM | – | –
24 | CN(CCNCc1cc(Cl)cc(Cl)c1)c1nc2ccc(Cl)nc2[nH]1 [Compound 1893, N-(2-(3,5-dichlorobenzylamino)ethyl)-5-chloro-N-methyl-1H-imidazo[4,5-b]pyridin-2-amine] | 14.8 nM | 3780 nM | 8 nM | 28.2 nM | 296 nM | 340 nM | – | –
25 | CN(CCNCc1cc(Cl)cc(Cl)c1)c1nc2nc(F)ccc2[nH]1 [Compound 1913, N-(2-{[(3,5-dichlorophenyl)methyl]amino}ethyl)-5-fluoro-N-methyl-1H-imidazo[4,5-b]pyridin-2-amine] | 113 nM | > 1000 nM | 26 nM | – | 691 nM | – | – | –
26 | COc1ccc(Oc2nc(NCc3nc4ccc(F)nc4[nH]3)nc(Oc3ccc(OC)cc3Cl)n2)c(Cl)c1 [Compound 1884, 4,6-bis(2-chloro-4-methoxyphenoxy)-N-({5-fluoro-3H-imidazo[4,5-b]pyridin-2-yl}methyl)-1,3,5-triazin-2-amine] | 55.9 nM | – | 24 nM | – | 122 nM | 773 nM | – | –
